ChEMBL document CHEMBL4052827, “Discovery of Tetrahydroisoquinoline-Containing CXCR4 Antagonists with Improved in Vitro ADMET Properties” (J Med Chem, 2018)

How the values were obtained:
[1] = Metabolic stability in mouse liver microsomes assessed as parent compound remaining at 0.5 uM after 10 mins in presence of NADPH by LC-MS/MS analysis
[2] = Antagonist activity at mAChR in human CCRF-CEM cells assessed as decrease in acetylacholine-stimulated Ca2+ flux preincubated for 25 mins followed by acetylacholine addition measured for 90 secs by calcium dye-based fluorescence assay; format: cell-based
Cytochrome P450 2D6 = Cytochrome P450 2D6 (Homo sapiens, UniProt P10635); assay: Inhibition of recombinant human CYP2D6 expressed in microsomes of insect cells using AMMC as substrate preincubated for 30 mins followed by NADP addition after 45 mins by fluorescence analysis
Chain of Cytochrome P450 2D6 (P10635 whole entry): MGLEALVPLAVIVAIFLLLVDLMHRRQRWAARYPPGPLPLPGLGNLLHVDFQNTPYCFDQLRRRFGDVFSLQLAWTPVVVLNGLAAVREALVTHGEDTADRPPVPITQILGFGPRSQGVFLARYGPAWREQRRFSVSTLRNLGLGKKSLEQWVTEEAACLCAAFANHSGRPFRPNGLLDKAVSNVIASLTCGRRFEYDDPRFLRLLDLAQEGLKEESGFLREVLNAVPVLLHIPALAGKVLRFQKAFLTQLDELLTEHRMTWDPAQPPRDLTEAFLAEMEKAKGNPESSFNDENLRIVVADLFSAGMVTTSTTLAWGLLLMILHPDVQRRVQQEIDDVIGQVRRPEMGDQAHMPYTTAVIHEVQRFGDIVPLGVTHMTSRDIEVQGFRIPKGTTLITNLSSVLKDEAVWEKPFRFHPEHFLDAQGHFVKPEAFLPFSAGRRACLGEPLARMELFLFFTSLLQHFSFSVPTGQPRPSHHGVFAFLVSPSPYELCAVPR

[3] = biological target: T1, C-X-C chemokine receptor type 4 (Homo sapiens, UniProt P61073); assay: Antagonist activity at human CXCR4 in CCRF-CEM cells assessed as decrease in SDF-1alpha stimulated Ca2+ flux preincubated for 25 mins followed by SDF-1alpha addition measured for 90 secs by calcium dye-based fluorescence assay; format: functional, cell-based
T1 sequence (P61073 whole entry): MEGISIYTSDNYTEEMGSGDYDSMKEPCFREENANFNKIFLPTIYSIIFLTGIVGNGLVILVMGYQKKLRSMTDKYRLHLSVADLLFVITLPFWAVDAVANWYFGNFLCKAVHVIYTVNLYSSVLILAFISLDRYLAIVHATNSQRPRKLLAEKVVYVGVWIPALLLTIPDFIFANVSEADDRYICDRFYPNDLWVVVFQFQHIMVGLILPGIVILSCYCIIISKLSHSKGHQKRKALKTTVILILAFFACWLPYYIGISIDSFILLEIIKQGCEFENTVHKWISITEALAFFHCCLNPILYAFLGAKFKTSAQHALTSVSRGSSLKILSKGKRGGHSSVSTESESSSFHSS

[4] = biological target: T1, C-X-C chemokine receptor type 4; assay: Agonist activity at CXCR4 in human CCRF-CEM cells assessed as induction of Ca2+ flux measured for 90 secs by calcium dye-based fluorescence assay; format: functional, cell-based
[5] = Agonist activity at mAChR in human CCRF-CEM cells assessed as induction of Ca2+ flux measured for 90 secs by calcium dye-based fluorescence assay; format: cell-based
[6] = Metabolic stability in human liver microsomes assessed as parent compound remaining at 0.5 uM after 10 mins in presence of NADPH by LC-MS/MS analysis
[7] = Permeability of the compound at pH 7.4 at 100 uM after 4 hrs by PAMPA
[8] = Permeability of the compound at pH 5.5 at 100 uM after 4 hrs by PAMPA

Row | SMILES | remaining at 10 min, 0.5 µM [1] | IC50 [2] | IC50 (Cytochrome P450 2D6) | IC50 [3] | EC50 [4] | EC50 [5] | remaining at 10 min, 0.5 µM [6] | Papp at 4 h, 100 µM [7] | Papp at 4 h, 100 µM [8]
1 | NCc1cccc(CN(C[C@H]2Cc3ccccc3CN2)[C@H]2CCCc3cccnc32)c1 | 89.2% | 25.7 µM | 0.032 µM |  | > 30 µM | > 30 µM | 97.3% |  | 
2 | c1ccc2c(c1)CN[C@@H](CN(CCCCNC1CCOCC1)[C@H]1CCCc3cccnc31)C2 | 55.8% | > 33.3 µM | 0.657 µM | 0.0294 µM | > 30 µM | > 30 µM | 53% |  | 
3 | c1ccc(CN(CCCCN(C[C@H]2Cc3ccccc3CN2)[C@H]2CCCc3cccnc32)Cc2ccccc2)cc1 | 0.298% | > 33.3 µM | 0.494 µM | > 16.7 µM | > 30 µM | > 30 µM | 4.84% |  | 3.9 ×10⁻⁶ cm/s
4 | c1ccc2c(c1)CN[C@@H](CN(CCCCNCC1CCOCC1)[C@H]1CCCc3cccnc31)C2 | 48.5% | > 33.3 µM | 2.72 µM | 0.0529 µM | > 30 µM | > 30 µM | 57.6% |  | 0.6 ×10⁻⁶ cm/s
5 | C(=C\CN(C[C@H]1Cc2ccccc2CN1)[C@H]1CCCc2cccnc21)/CNCc1ccncc1 |  | > 16.7 µM |  |  |  | > 30 µM |  |  | 
6 | c1ccc(CNCc2ccc(CN(C[C@H]3Cc4ccccc4CN3)[C@H]3CCCc4cccnc43)cc2)nc1 | 11.6% | 6.94 µM | 0.377 µM |  | > 30 µM | > 30 µM | 1.77% |  | 1.6 ×10⁻⁶ cm/s
7 | CC(C)(CCN(C[C@H]1Cc2ccccc2CN1)[C@H]1CCCc2cccnc21)CNCC1CCOCC1 | 60.3% | 13 µM | 1.75 µM | 0.0438 µM | > 30 µM | > 30 µM | 46.1% |  | 6.2 ×10⁻⁶ cm/s
8 | NCc1ccc(CN(C[C@H]2Cc3ccccc3CN2)[C@H]2CCCc3cccnc32)cc1 |  | > 33.3 µM |  |  |  | > 30 µM |  |  | 
9 | c1ccc(CNCCCCN(C[C@H]2Cc3ccccc3CN2)[C@H]2CCCc3cccnc32)nc1 |  | > 30 µM |  |  |  | > 30 µM |  |  | 
10 | FC1(F)CCC(CNCCCCN(C[C@H]2Cc3ccccc3CN2)[C@H]2CCCc3cccnc32)CC1 |  | > 16.7 µM |  | 0.168 µM | > 30 µM | > 30 µM |  |  | 
11 | c1ccc2c(c1)CN[C@@H](CN(Cc1ccc(CNCC3CCOCC3)cc1)[C@H]1CCCc3cccnc31)C2 |  | > 16.7 µM |  |  |  | > 30 µM |  |  | 
12 | C(=C\CN(C[C@H]1Cc2ccccc2CN1)[C@H]1CCCc2cccnc21)/CNCc1cccnc1 | 0.953% | 35.1 µM | 0.453 µM |  | > 30 µM | > 30 µM | 1.84% | 24.4 ×10⁻⁶ cm/s | 
13 | FC1(F)CCC(NCc2ccc(CN(C[C@H]3Cc4ccccc4CN3)[C@H]3CCCc4cccnc43)cc2)CC1 | 30.2% | > 16.7 µM | 0.577 µM |  | > 30 µM | > 30 µM | 10.8% | 0.5 ×10⁻⁶ cm/s | 
14 | c1ccc2c(c1)CN[C@@H](CN(CCCCNCC1CCNCC1)[C@H]1CCCc3cccnc31)C2 | 37.9% | > 16.7 µM | 2.53 µM | 0.0365 µM | > 30 µM | > 30 µM | 84.6% |  | 
15 | c1ccc(CNCCCCN(C[C@H]2Cc3ccccc3CN2)[C@H]2CCCc3cccnc32)cc1 | 31.2% | 3.43 µM | 0.141 µM | 0.0201 µM | > 30 µM | > 30 µM | 71.7% |  | 

Second part, the molecule after the results:

Row | remaining at 10 min, 0.5 µM [1] | IC50 [2] | IC50 (Cytochrome P450 2D6) | IC50 [3] | EC50 [4] | EC50 [5] | remaining at 10 min, 0.5 µM [6] | Papp at 4 h, 100 µM [7] | Papp at 4 h, 100 µM [8] | SMILES
16 | 39.3% | > 16.7 µM | 1.17 µM | 0.017 µM | > 30 µM | > 30 µM | 74% |  |  | O=S1(=O)CCC(CNCCCCN(C[C@H]2Cc3ccccc3CN2)[C@H]2CCCc3cccnc32)CC1
17 | 4.39% | 12.2 µM | 0.084 µM |  | > 30 µM | > 30 µM | 0.882% | 38.5 ×10⁻⁶ cm/s |  | c1ccc2c(c1)CN[C@@H](CN(Cc1ccc(CNCc3ccncc3)cc1)[C@H]1CCCc3cccnc31)C2
18 | 2.82% | > 16.7 µM | 0.629 µM | 0.0696 µM | > 30 µM | > 30 µM | 49.4% |  |  | c1ccc2c(c1)CN[C@@H](CN(CCCCNCC1CCSCC1)[C@H]1CCCc3cccnc31)C2
19 | 50% | 19.9 µM | 0.09 µM | 0.0776 µM | > 30 µM | > 30 µM | 30.1% | 0.3 ×10⁻⁶ cm/s |  | CC1(C)CCC(NCCCCN(C[C@H]2Cc3ccccc3CN2)[C@H]2CCCc3cccnc32)CC1
20 | 38% | > 33.3 µM | 2.61 µM | 0.0634 µM | > 30 µM | > 30 µM | 100% |  | 1.9 ×10⁻⁶ cm/s | c1ccc2c(c1)CN[C@@H](CN(CCCCNC1CCNCC1)[C@H]1CCCc3cccnc31)C2
21 | 10.2% | 19.9 µM | 0.217 µM | 0.0153 µM | > 30 µM | > 30 µM | 21.4% |  |  | c1cncc(CNCCCCN(C[C@H]2Cc3ccccc3CN2)[C@H]2CCCc3cccnc32)c1
22 | 34.8% | > 16.7 µM | 0.507 µM |  | > 30 µM | > 30 µM | 20.4% | 9.2 ×10⁻⁶ cm/s |  | c1ccc2c(c1)CN[C@@H](CN(Cc1ccc(CNC3CCOCC3)cc1)[C@H]1CCCc3cccnc31)C2
23 | 17.6% | > 33.3 µM | 0.853 µM | 0.0455 µM | > 30 µM | > 30 µM | 11.7% |  |  | O=S1(=O)CCC(NCCCCN(C[C@H]2Cc3ccccc3CN2)[C@H]2CCCc3cccnc32)CC1
24 | 6.44% | > 33.3 µM | 0.145 µM | 0.0227 µM | > 30 µM | > 30 µM | 1.92% |  | 0.65 ×10⁻⁶ cm/s | c1ccc2c(c1)CN[C@@H](CN(CCCCNCc1ccncc1)[C@H]1CCCc3cccnc31)C2
25 | 23.2% | 8.76 µM | 0.258 µM |  | > 30 µM | > 30 µM | 14.9% |  |  | CC1(C)CCC(NCc2ccc(CN(C[C@H]3Cc4ccccc4CN3)[C@H]3CCCc4cccnc43)cc2)CC1
26 | 43.8% | > 33.3 µM | 0.524 µM | 0.0752 µM | > 30 µM | > 30 µM | 46.1% |  | 1.45 ×10⁻⁶ cm/s | c1ccc2c(c1)CN[C@@H](CN(CCCCNC1CCCCC1)[C@H]1CCCc3cccnc31)C2
27 |  | 28.2 µM |  | 0.00371 µM | > 30 µM | > 30 µM |  |  |  | FC1(F)CCC(NCCCCN(C[C@H]2Cc3ccccc3CN2)[C@H]2CCCc3cccnc32)CC1
28 |  | 21.4 µM |  |  |  | > 30 µM |  |  |  | c1cncc(CNCc2ccc(CN(C[C@H]3Cc4ccccc4CN3)[C@H]3CCCc4cccnc43)cc2)c1
